Source: patent US6630516B2, “Methods and compositions for preventing and treating chronological aging in human skin” (The Regents of the University of Michigan, priority 1997, dated 2003)
“Also recorded” adds a separate entry of the source.

Experiments:
[1] = system: sun-protected skin of subjects at least 80 years old; test: Histology and morphometry of elderly skin biopsied seven days after one topical treatment; assay type: in vivo, human
Description: To investigate the treatment of chronologically-aged skin, 17 subjects having an age of at least 80 years old were given one topical treatment with 1% retinol or with vehicle alone, the test area was occluded for seven days, and the test area was then biopsied. The vehicle was composed of a mixture of ethanol and polyethylene glycol in a 70:30 volumetric ratio. In comparing vehicle-treated skin with untreated skin from individuals of the same elderly age range, there were no statistically significant differences in any of the parameters described with reference to FIG. 2, namely the number of fibroblasts and keratinocytes, the epidermal thickness, and undesirable dermal connective tissue features. […] Due to the short duration of the retinoid (retinol) treatment, little change in the number of detrimental dermal connective tissue features (11B) was apparent.
Histology and morphometry. Replicate 4-mm punch biopsies were obtained from buttock skin of each individual. Formalin-fixed tissue pieces were sectioned, stained with hematoxylin and eosin, randomized and blinded. The sections were examined using an Olympus BX40 microscope in conjunction with a Sony DCX-151 high-resolution camera. Blocked areas 200 μm on a side were isolated using NIH Imager software and epidermal height was assessed at four sites (25 μm apart) in each of two such areas. The same two blocked areas were used for epithelial cell counts. The number of interstitial cell nuclei (i.e., nuclei below the dermo-epidermal juncture, not associated with capillaries) over the entire histological section was determined as a measure of dermal cellularity. The same blinded sections were scored for connective tissue fiber spacing, thickness, degree of disorganization and depth of disorganization, using a scale of 1-9 for each parameter.

keratinocytes = test: Ex vivo cell growth from biopsies after 7-day in vivo treatment (keratinocytes); set-up: species or system human; details: one application of 1% retinol in vivo, occluded seven days, biopsy cells cultured ex vivo; age over 80; p<0.05
Method: (§1) That is, an elderly volunteer was treated with retinol (one application of 1% retinol, occluded for seven days), the treated area was biopsied, and the keratinocytes and fibroblasts from the biopsy were cultured ex vivo. […] In particular, keratinocytes growth increased by about 30% (12A) while fibroblast growth increased by about 200% (12B), with p<0.05 for both. Accordingly, the topical application of a retinoid to aged skin would be expected to increase the number of keratinocytes and/or the number of fibroblasts in the skin.
(§2) Ex vivo cell growth. Biopsies were minced into small fragments (approximately 15 fragments per tissue piece) and the tissue fragments transferred to plastic cell culture flasks. Culture medium consisted of Dulbecco's Modified Minimal Essential Medium of Eagle with Earle's salts, non-essential amino acids and 10% fetal bovine serum. Tissue fragments were incubated at 37° C. and 5% CO2/95% air for up to one month. Each fragment was scored for whether keratinocytes and/or fibroblasts grew out of the tissue and from this, the percentage of fragments from which keratinocytes and fibroblasts were isolated was determined according to the method of Varani, J., et al., J Clin. Invest., 96, 1747-1756 (1994).

fibroblasts = test: Ex vivo cell growth from biopsies after 7-day in vivo treatment (fibroblasts); set-up: species or system human; details: one application of 1% retinol in vivo, occluded seven days, biopsy cells cultured ex vivo; age over 80; p<0.05
Method: as §1, §2

MMP-1 = test: Matrix metalloproteinase assay (collagenolytic activity) in biopsies of treated elderly skin; assay type: in vivo, human; details: seven days after a single retinol treatment, vs vehicle only, p<0.001
Description: (§3) We also used the biopsies from the aforementioned volunteers to determine the effect of the same retinoid treatment on the relative activity of the same collagenase enzymes studied for the results shown in FIG. 4. FIGS. 14A, 14B, and 14C depict the average MMP activity levels (for collagenase MMP-1 and gelatinases MMP-9 and MMP-2, respectively) after treatment of elderly individuals with retinol. […] (In FIGS. 14A-14C, the number of subjects for each figure was 10; “*” indicates […] versus the 18-29 year old values, “**” indicates p<0.1, and “***” indicates p<0.001.)
Matrix metalloproteinase assays. Tissue pieces were frozen in liquid nitrogen immediately after biopsy, homogenized in 20 mM Tris HCl (pH 7.6) plus 5 mM CaCl2, and centrifuged at 3000×g for 10 minutes to remove particulates. Ability to release soluble radioactive fragments from 3H-labeled fibrillar Type I collagen (described by Fisher, G. J., et al., Nature, 379, 335-339 (1996) and Hu, C-L, et al., Analytic. Biochem, 88, 638-643 (1978)) was used as a measure of collagenolytic activity. […] Subsequently, 0.2 μCi of collagen substrate (NEN-DuPont, Boston, Mass.) was incubated for 24 hours with 50 μl of tissue extract. […] Radioactivity remaining in the supernatant fluid was then measured and from this, the percentage of substrate hydrolzyed was determined.

MMP-9 = test: Gelatin zymography in biopsies of treated elderly skin (MMP-9); assay type: in vivo, human; details: seven days after a single retinol treatment, vs vehicle only, p<0.001
Description: as §3
(§4) Gelatin zymography (Varani et al., op. cit.) was used to assess MMP-2 (72-kD gelatinase; gelatinase A) and MMP9 (92-kD gelatinase; gelatinase B) activity. Tissue extracts were electrophoresed in an 8.5% SDS-polyacrylamide gel containing 1 mg/ml of gelatin. After electrophoresis, the SDS was removed by three sequential washes in 1% Triton X-100. The first two washes were for 20 minutes each and the last was overnight. Quantitation of hydrolysis zone width was done by laser densitometry.

MMP-2 = test: Gelatin zymography in biopsies of treated elderly skin (MMP-2); assay type: in vivo, human; details: seven days after a single retinol treatment, vs vehicle only
Description: as §3, §4

[2] = system: Type III procollagen α1(III) mRNA; test: In vivo induction of Type III procollagen mRNA in elderly skin; set-up: species or system human; details: 1% retinol cream applied once to sun-protected skin, covered with a patch seven days; seven 80+ year old individuals
Method: Seven 80+ year old individuals were treated clinically with 1% retinol cream, applied once to sun-protected skin, covered with a patch, and left undisturbed for seven days.
Northern analysis of RNA. Total RNA (e.g., for c-Jun, procollagen α1(III)) was isolated from skin samples by guanidinium hydrochloride lysis and ultracentrifugation (as described by G. J. Fisher et al., “Cellular, immunologic and biochemical characterization of topical retinoic acid-treated human skin,” J Investig. Dermatol, 96:699-707 (1991)). Northern analysis of total RNA (40 μg/lane) with randomly primed ^32P labelled cDNA probes for the particular mRNA to be determined were performed as described by G. J. Fisher et al. (in “All trains retinoic acid induces cellular retinol-binding protein in human skin in vivo,” J Investig. Dermatol, 105:80-86 (1995)). Type III procollagen mRNA was determined using […].

ERK = ERK activity assay in biopsies of treated elderly skin; assay type: in vivo, human; details: 1% retinol applied to sun-protected skin, occluded, examined seven days later; three 80+ year old volunteers; control normalized to one
Description: Using the same technique as previously described for retinoid treatment (1% retinol applied to sun-protected skin, occluded, and examined seven days later), we treated and then tested three of our 80+ year old volunteers to determine the effect of retinoid treatment on ERK activity. […] ERK phosphorylation and activity assays. ERK1 and ERK2 in skin supernatants were immunoprecipitated with antibodies from Santa Cruz Biotechnology Inc. and assayed for enzymatic activity using myelin basic protein as substrate, as described by J. D. Weber et al. (“Sustained activation of extracellular-signal regulated kinase I (ERK1) is required for the continued expression of cyclin D1 in G1 phase,” Biochem. J., 326:61-68 (1997)). Total and phosphorylated ERK1 and ERK2 in supernatants were determined by Western analysis, using antibodies from New England Biolabs Inc. (Beverly, Mass.)

c-Jun protein = test: Stained sectioned biopsies of elderly skin: c-Jun protein; assay type: in vivo, human; details: seven days after a single application of 1% retinol; 80+ volunteers; stained sections
Description: As noted above, AP-1 induces MMP formation and is formed by the heterodimerization of c-Jun and c-Fos proteins.

Type I procollagen = test: Stained sectioned biopsies of elderly skin: Type I procollagen; assay type: in vivo, human; details: seven days after a single application of 1% retinol; 80+ volunteers; stained sections; vs vehicle
Description: (§5) Additional sectioned and stained biopsies from our oldest (80+) group of volunteers after retinoid treatment are depicted in FIG. 18. As noted above, AP-1 induces MMP formation and is formed by the heterodimerization of c-Jun and c-Fos proteins. […] Thus, our invention appears to inhibit c-Jun formation and thereby inhibit the formation of AP-1 and the resulting MMPs. […] (The apparently lower density of procollagen in the dermis in FIG. 18C is an artifact of the section made; there is clearly a higher level of staining in the retinol treated section than in the vehicle treated section.)
(§6) In another aspect, this invention is directed to improving, or stimulating, the synthesis of Types I and III procollagen in an elderly person's skin. We have found there is a significant reduction in Types I and III procollagen synthesis in sun-protected skin of many (at least 50% of) aged individuals and that this condition can be treated by the topical application of a retinoid. Procollagen is a protein synthesized by skin fibroblast cells and then secreted into the extracellular medium, where it is converted by naturally occurring enzymes into collagen. Reduced procollagen synthesis in an elderly person's skin is manifest as a reduced presence of procollagen protein in both the upper dermis (extracellular) and in fibroblasts throughout the dermis, and can be determined (e.g.) by immunohistochemistry.

Type III procollagen = test: Stained sectioned biopsies of elderly skin: Type III procollagen; assay type: in vivo, human; details: seven days after a single application of 1% retinol; 80+ volunteers; stained sections; vs vehicle
Description: as §5, §6

procollagen protein = test: Procollagen protein levels in chronologically-aged skin after treatment; assay type: in vivo, human; details: single application of 1% retinol to chronologically-aged skin, covered with air-permeable adhesive bandage, examined seven days later
Description: as §6
It has been found unexpectedly that topical treatment of elderly, chronoaged skin with a retinoid results in a restitution of intracellular procollagen protein levels similar to those observed in young individuals (such as those aged 40 and younger). […] It would be more preferable for elderly persons to apply the retinoid once or twice daily to maintain a therapeutic regimen, although the agent could be applied on a less frequent but preferably regular basis (e.g., every other day, or once weekly). […]

[3] = 1% retinol, one topical application, occluded seven days, vs vehicle-treated skin, age 80+
[4] = one application of retinol, 7 days, sun-protected skin of an individual, vs vehicle-treated skin

CC1=C(/C=C/C(C)=C/C=C/C(C)=C/CO)C(C)(C)CCC1 [retinol]
mean increase in number of keratinocytes per section ([1]; 1% retinol, one topical application, occluded seven days, vs vehicle-treated skin of same individuals, age 80+, p<0.001): 273%
mean increase in number of fibroblasts per section ([1]; 1% retinol, one topical application, occluded seven days, vs vehicle-treated skin of same individuals, age 80+, p<0.05): 30%
epidermal thickness [1, 3]: increased the epidermal thickness substantially; also recorded: thickened
number of detrimental dermal connective tissue features [1, 3]: little change
appearance of dermal collagen [1, 4]: denser and more regular
interfacial surface area between epidermis and dermis (rete pegs and dermal papillae) [1, 4]: increased
increase in ex vivo keratinocytes growth (keratinocytes): about 30%
increase in ex vivo fibroblast growth (fibroblasts): about 200%
decrease in MMP-1 activity (MMP-1): 48%
decrease in MMP-9 activity (MMP-9): 39%
change in the activity of MMP-2 (MMP-2): no significant change
increase in Type III procollagen mRNA from control (vehicle-treated) areas [2]: about 2.5 times
ERK activity in vivo compared with vehicle-treated area (ERK): more than doubled
c-Jun level in elderly skin compared with vehicle-treated skin (c-Jun protein): decreased; also recorded: significantly reduced (almost absent)
level of Type I procollagen in skin (Type I procollagen): increased; also recorded: enhanced
level of Type III procollagen in skin (Type III procollagen): increased; also recorded: enhanced
procollagen protein levels (procollagen protein): comparable to those found in sun-protected skin of significantly younger individuals
